Experimental data from US8741962B2, “Process for preparation of Rasagiline and salts thereof” (USV Limited, priority 2009, dated 2014).
Several values for one entry are separate records, joined by “and”; a condition that tells them apart may be missing. Identical values can stand only once. Like-named read-outs stand apart in the source and are kept apart here.

Legend:
[1] = Particle size determination by dry method (Malvern Mastersizer 2000, Scirocco 2000 dry unit); settings: for d10 / d50 / d90: not micronized, as obtained by the process
Method: Rasagiline mesylate is further micronized using conventional micronization techniques. After micronization, the sample is preferably passed through 100 mesh sieve and the particle size is measured using a Malvern Mastersizer 2000 dry unit, Scirocco 2000 which is commercially available from Malvern Instruments Ltd., United Kingdom.

[2] = From the text: The present inventors have conducted extensive research work for solving the problem of agglomerization of micronized Rasagiline or salt thereof.
[3] = wet method
Remark: listed apart in the source
[4] = Pack-1 (Glass bottle), after one month
[5] = Pack-1 (Glass bottle), micronized sample (initial)
[6] = Pack-2 (PET bottle), after one month
[7] = Pack-2 (PET bottle), micronized sample (initial)
[8] = room temperature, glass bottle or PET bottle, about one month
[9] = after micronization, dry method
[10] = before micronization, dry method

Br.C#CCN[C@@H]1CCc2ccccc21 [R(+)-Rasagiline hydrobromide, (1R)-2,3-dihydro-N-2-propynyl-1H-indane-1-amine hydrobromide]
size of 90% of the total amount by volume of particles ([1]; micronized, dry method): less than 20 microns | d10 [1]: 2-9 μ | d50 [1]: 10-20 μ | d90 [1]: 40-80 μ

C#CCN[C@@H]1CCc2ccccc21.CS(=O)(=O)O [R(+)-Rasagiline mesylate, (1R)-2,3-dihydro-N-2-propynyl-1H-indane-1-amine mesylate]
D10 [2, 4]: 1.70 | D50 [2, 4]: 3.66 | D90 [2, 4]: 7.55 | D10 [2, 5]: 1.40 | D50 [2, 5]: 3.33 | D90 [2, 5]: 7.88 | D10 [2, 6]: 1.41 | D50 [2, 6]: 2.97 | D90 [2, 6]: 5.64 | D10 [2, 7]: 1.43 | D50 [2, 7]: 2.90 | D90 [2, 7]: 5.74 | Agglomeration of the particles on storage [2, 8]: no agglomeration of the particles was observed | Change in XRPD pattern and particle size on storage [2, 8]: no change in XRPD pattern and particle size | Particle Size Distribution D90 ([3]; after micronization): 796.35 micron and 1007.18 micron | Particle Size Distribution D50 ([3]; before micronization): 141.23 micron and 174.70 micron | Particle Size Distribution D90 ([3]; before micronization): 590.45 micron and 832.14 micron | Particle Size Distribution D10 [1, 9]: 1.44 micron and 1.43 micron | Particle Size Distribution D50 [1, 9]: 3.00 micron and 2.90 micron | Particle Size Distribution D90 [1, 9]: 5.94 micron and 5.74 micron | Particle Size Distribution D10 [1, 10]: 3.65 micron and 3.18 micron | Particle Size Distribution D50 [1, 10]: 15.27 micron and 13.33 micron | Particle Size Distribution D90 [1, 10]: 57.38 micron and 47.11 micron | particle size of 50% of particles ([1]; micronized): less than or equal to 4 μ | particle size of 90% of particles ([1]; micronized): less than or equal to 9 μ | d10 [1]: 2-9 μ | d50 [1]: 10-20 μ | d90 [1]: 40-80 μ

C#CCN[C@@H]1CCc2ccccc21.Cl [R-(+)-Rasagiline hydrochloride, (1R)-2,3-dihydro-N-2-propynyl-1H-indane-1-amine hydrochloride]
size of 90% of the total amount by volume of particles (micronized): less than 20 microns | size of 90% particles (not micronized): less than 500 microns
